Assay results: patent publication US20170172450A1, “SYSTEM AND METHODS FOR QUANTITATIVELY DESCRIBING BIOPHYSICAL MARKERS” (STC.UNM, priority 2014, published 2017)

Key:
[1] = breast tumors of patients; cited from earlier work
[2] = Toxicity monitoring in clinical trial of intraoperative gemcitabine infusion; format: in vivo, human
Method: Pancreatic resection was performed using standard techniques and major surgical complications were defined as previously described. […] Serum samples were collected at regular intervals during the operation to determine gemcitabine pharmacokinetics. The MD Anderson Data and Safety Monitoring Board oversaw the study. Drug toxicities were evaluated according to Common Terminology Criteria for Adverse Events version 3.0. Daily postoperative labs including absolute neutrophil counts (ANC) and platelet counts were drawn. Patients received full supportive care and the use of growth factors was permitted for myelosuppression (ANC<0.5×10^9). There were 3 patients with grade III neutropenia or leukopenia, and 3 patients with grade II neutropenia. All cytopenias were transient with nadir at approximately postoperative day 6.

[3] = Gemcitabine incorporation into DNA of cells in pancreatic tumor and normal pancreas (punch biopsies, Advion assay); format: in vivo, human
Method: Pancreatic resection was performed using standard techniques and major surgical complications were defined as previously described. Gemcitabine was administered intravenously at 500 mg/m^2 for the first 2 patients (per IRB safety recommendations) and then subsequently at 1000 mg/m^2 with an infusion pump at a fixed dose rate of 10 mg/m^2/min (over 50 min and 100 min respectively) and was delivered at the start of operation and concluded prior to specimen removal. Serum samples were collected at regular intervals during the operation to determine gemcitabine pharmacokinetics.
Immediately after specimen collection, tumors were bivalved by a surgical pathologist and 4.0 mm punch biopsies were taken from the outer and inner portions of the tumors (median 4 samples per tumor) as well from as the normal pancreas. The punch biopsies were sent for quantitative analysis of the gemcitabine metabolite incorporation into the DNA of the cells within the pancreatic tumor (i.e., cancer and stromal cells) and normal pancreas (Advion BioServices, Ithaca, N.Y.). […]
The pancreatectomy specimens were evaluated by a pathologist. […] The locations of the tumor biopsy samples that were used to quantify gemcitabine incorporation were recorded as either inner or outer tumor. […] These specimens were then processed as previously described for quantitative analysis of gemcitabine DNA incorporation (Advion Biosciences). […]

[4] = dose of 300 mg/m^2; cited from earlier work
[5] = 12 PDAC patients, IV 500 or 1000 mg/m^2 at 10 mg/m^2/min during resection, CTCAE version 3.0

| SMILES | intra-tumoral heterogeneity in delivery [1] | thrombocytopenia ([2]; 12 PDAC patients, intraoperative IV infusion) | patients with grade II neutropenia [2, 5] [patients] | patients with grade III neutropenia or leukopenia [2, 5] [patients] | nadir of cytopenias ([2]; all cytopenias transient) [postoperative day] | infectious complications ([2]; whole cohort) | gemcitabine incorporation in the tumors relative to normal pancreas ([3]; 12 patients with localized primary PDAC) | drug delivery to tumor ([3]; intraoperative gemcitabine infusion trial) | differences in gemcitabine incorporation into the primary tumors [4] |
| --- | --- | --- | --- | --- | --- | --- | --- | --- | --- |
| COc1cccc2c1C(=O)c1c(O)c3c(c(O)c1C2=O)C[C@@](O)(C(=O)CO)C[C@@H]3O[C@H]1C[C@H](N)[C@H](O)[C@H](C)O1 [doxorubicin] | some parts of the tumor not receiving any drug |  |  |  |  |  |  |  |  |
| Nc1ccn([C@@H]2O[C@H](CO)[C@@H](O)C2(F)F)c(=O)n1 [gemcitabine] |  | No significant thrombocytopenia | 3 | 3 | ~6 | no infectious complications | ranged from sub- to supra-normal pancreas levels | measureable drug delivery in all patients | up to 5 fold |
